Laboratory results as given in US20150017638A1, “METHODS FOR ASSESSING RISK FOR CANCER USING BIOMARKERS” (THE TRUSTEES OF THE UNIVERSITY OF PENNSYLVANIA, priority 2012, published 2015).

Key:
[1] = test system: Primary cell lines derived from PanIN mice (sorted YFP+ cells); experiment: In vitro exposure of PanIN-derived primary cell lines to cerulein, dexamethasone, TGF-b; format: cell-based, mouse; details: 48 hr; for cell morphology: dexamethasone 1 mM, vs DMSO vehicle
Procedure: Cells destined for transcriptional analysis were sorted into either RLT buffer (QIAGEN) or Trizol LS Reagent (Invitrogen). RNA was extracted from samples >1,000 cells using the RNEasy kit (QIAGEN). RNA from samples with fewer cells, including all sorted blood cell samples, was isolated using the PicoPure Extraction kit as directed (Arcturus). qPCR was performed as previously described (Zong et al., 2009), and primary sequences used are listed in Table 1, below. Relative expression was determined after adjusting for GAPDH. Genomic DNA was extracted from sorted CPCs pooled from three tumor-bearing mice using phenol or DNeasy kit (QIAGEN).
Primary cell lines were derived from PanIN mice after sorting pancreas single-cell suspensions for YFP^+ cells. Sorted YFP^+ cells were then placed in six-well plates in pancreatic ductal cell media (Schreiber et al., 2004) and passaged at 80% confluence, Cells were transferred to multiple 6-well plates (250,000 cells per well) in pancreatic ductal cell media containing DMSO vehicle, cerulein (100 nM, Sigma), dexamethasone (Dex, 1 mM, Sigma), TGF-b (5 ng/ml, Peprotech), or Dex (1 mM) and TGF-b (5 ng/ml). Morphology was photodocumented at 6 hr, 24 hr, and 48 hr after treatment using an inverted microscope. After 48 hr of exposure, cells were counted and RNA isolated, cDNA synthesized, and qPCR performed as described above.

[2] = test system: CY, KCY, PanIN PKCY, and PDAC PKCY mice; experiment: Experimental acute pancreatitis elicited with cerulein in lineage-labeled mice; format: in vivo, mouse
Text: The behavior of mutant strains bearing various allele combinations of Pdx1-Cre KrasG12D, p16/p19fl, and p53fl has been described previously (Aguirre et al., 2003; Bardeesy et al., 2006; Hingorani et al., 2003; and U.S. patent application Ser. No. 11/503,499, the contents of which are expressly incorporated herein by reference). To perform lineage tracing, a RosaYFP reporter allele was introduced into these mutant backgrounds to generate a panel of compound mutant strains: Pdx1-Cre; RosaYFP (“CY”), Pdx 1-Cre; KrasG12D; RosaYFP (“KCY”), Pdx1-Cre; KrasG12D; p16/p19fl/+; RosaYFP (“IKCY”), and Pdx1-Cre; KrasG12D; p53fl/+; RosaYFP (“PKCY”). All experiments involving the KCY model employed mice between 8 and 10 weeks of age. For studies involving mice harboring only PaniN lesions by histologic analysis (“PanIN” mice), PKCY animals were sacrificed at 8-10 weeks of age based on prior observations regarding tumor progression (Bardeesy et al., 2006); no PKCY mice (out of 18 examined) had evidence of carcinoma at this time point. […] More than 90% of IKCY and PKCY mice were 34-38 weeks of age or 16-20 weeks of age, respectively, at the time of sacrifice.
Experimental pancreatitis was elicited with cerulein as described (Siveke et al., 2008), and specimens were obtained after 3 days of treatment. Three to four CY, KCY, PanIN PKCY, and PDAC PKCY were used for cerulein and vehicle (PBS) treated cohorts. Orthotopic transplantations were performed on NOD/SCID mice by injecting 1×10^5 sorted pancreas cells as previously described (Mohammad et al., 1998). PKCY PanIN mice aged 10 weeks were treated with seven daily injections of dexamethasone or vehicle (DMSO) as described (Stairs et al., 2011) and analyzed 24 hours later.
For experiments involving flow cytometry and sorting of pancreatic cells, at least 25% of the tissue was saved for histologic analysis and was processed and stained. To create a single cell suspension, pancreatic tissue was rinsed vigorously in cold DMEM/F12 three times before mincing with scissors (approximately 100 chops). The minced pieces were then incubated in preheated collagenase with protease inhibitors (2 mg/ml; Sigma) for 20 min at 37° C. Vigorous vortexing was performed every 5 min during this incubation. The dissolved pieces were then poured over a […] cell strainer. The flow through was resuspended in cold 2% FCS/DMEM/F12, centrifuged, washed once, and kept on ice in the dark. Enriched blood samples or dissociated pancreatic specimens were stained for various markers prior to flow cytometric analysis (FACS Calibur, BD, or Accuri C6, Accuri Cytometers) or flow sorting (FACSVantage with FACSDiva option, BD). For analysis and sorting based on endogenous YFP and surface markers, primary antibodies (1:100) and secondary antibodies (1:50) were incubated with cells in 10% FCS/DMEM/F12 for 20 min at 4° C. Primary PanIN cell lines from IKCY and PKCY mice were used as positive controls. Isotype controls were also run. For intracellular staining of CPCs and pancreas cells, cells were washed with 10% FCS/DMEM/F12 before washing in freshly prepared 13fixation/permeabilization solution (Fix/Perm; eBioscience) followed by incubation in Fix/Perm for 30 min in the dark at 4° C. Cells were washed twice with 13 permeabilization buffer (Perm; eBioscience) before incubation in Block-P solution (10% FCS in freshly prepared Perm). After 15 min at 4° C., primary antibodies were added and incubated for an additional 20 min on ice. […]

murine PanIN disease = details: Guerra et al., 2011; cited from earlier work
[3] = cerulein 100 nM, Dex 1 mM, triplicate

## TGF-b
[1]; TGF-b 5 ng/ml, triplicate
  expression of epithelial markers (qPCR): significant downregulation of epithelial markers
  expression of mesenchymal markers Zeb1 and N-cad (qPCR): increase in the expression of the mesenchymal markers Zeb1 and N-cad
[1]; cerulein 100 nM, TGF-b 5 ng/ml
  cell morphology: acquisition of a fibroblast-like morphology

## cerulein
[2]; 8-week-old KCY mice, 3 days of cerulein vs vehicle
  circulating pancreatic cell (CPC) number: marked elevation in circulating cells
[2]; KCY mice, 8-week-old, 3 days of cerulein treatment vs vehicle
  pancreas histology (ADMI and PanIN formation): formation of ADMIs and accelerated PanIN formation
[2]; PDAC mice, cerulein compared to vehicle
  frequency of EMT in pancreas: little change in the frequency of EMT
[2]; across all groups (CY, KCY, PKCY PanIN, PDAC), p=0.014 by two-way ANOVA
  circulating pancreatic cell (CPC) number: significant increase in CPC number
[2]; control (CY) and KCY mice
  EMT (YFP+Zeb1+ cells) in pancreas: emergence of YFP^+Zeb1^+ cells
[1]; [3]
  expression of a panel of epithelial or mesenchymal markers (qPCR): no effect
  proliferation: no effect on proliferation
[1]; cerulein 100 nM, TGF-b 5 ng/ml
  cell morphology: identical morphology as vehicle-treated cells

## C[C@@H]1C[C@H]2[C@@H]3CCC4=CC(=O)C=C[C@]4(C)[C@@]3(F)[C@@H](O)C[C@]2(C)[C@@]1(O)C(=O)CO [dexamethasone]
[1]; [3]
  expression of a panel of epithelial or mesenchymal markers (qPCR): no effect

## CC1=C(CC(=O)O)c2cc(F)ccc2/C1=C\c1ccc([S+](C)[O-])cc1 (stereo not shown) [sulindac]
Murine PanIN disease
  PanIN disease: regression of murine PanIN disease
